The subject of series [1] is HEK293 (embryonic kidney) cells. Kind of series: Cytotoxicity assay (7-AAD viability, flow cytometry), HEK293. The series is classed as cell-based, human. The conditions noted are these: at least three experiments in duplicate, viable cells. Here is the method: (§1) Cells (Jurkat, K562, U937, HeLa, HEK293 and normal Fibroblasts) were purchased from Russian Cell Culture Collection (Institute of Cytology of the Russian Academy of Sciences, Saint Petersburg, Russia) and cultured according to standard mammalian tissue culture protocols and sterile technique. Human cell lines HEK293 and HeLa were obtained from the HPA Culture Collections (Salisbury, UK). All cell lines used in the study were tested and shown to be free of mycoplasma and viral contamination.
(§2) HEK293, HeLa cell lines and fibroblasts were cultured as monolayers and maintained in Dulbecco’s modified Eagle’s medium (DMEM, Gibco BRL, Waltham, MA, USA) supplemented with 10% foetal bovine serum and 1% penicillin-streptomycin solution at 37 °C in a humidified incubator under a 5% CO2 atmosphere.
(§3) Cells were maintained in RPMI 1640 (Jurkat, K562, U937) (Gibco, Thermo Fisher Scientific, Waltham, MA, USA) supplemented with 4 mM glutamine, 10% FBS (Sigma, Burlington, MA, USA) and 100 units/mL penicillin-streptomycin (Sigma). All types of cells were grown in an atmosphere of 5% CO2 at 37 °C. The cells were subcultures at 2–3 days intervals. Adherent cells (HEK293, HeLa, fibroblasts) were suspended using trypsin/EDTA and counted after they have reached 80% confluency. Cells were then seeded in 24 well plates at 5 × 10^4 cells per well and incubated overnight. Jurkat, K562, U937 cells were subcultured at 2 day intervals with a seeding density of 1 × 10^5 cells per 24 well plates in RPMI with 10% FBS.
(§4) Viability (Live/dead) assessment was performed by staining cells with 7-AAD (7-Aminoactinomycin D) (Biolegend, San Diego, CA, USA). Cells were treated of test compounds with six different concentrations (1, 5, 10, 15, 30 and 60 μM). After treatment, cells were harvested, washed 1–2 times with phosphate-buffered saline (PBS) and centrifuged at 400× g for 5 min. Cell pellets were resuspended in 200 μL of flow cytometry staining buffer (PBS without Ca^2+ and Mg^2+, 2.5% FBS) and stained with 5 μL of 7-AAD staining solutionfor 15 min at room temperature in the dark. Samples were acquired on NovoCyteTM 2000 FlowCytometry System (ACEA, San Diego, CA, USA) equipped with 488 nm argon laser. Detection of 7-AAD emission was collected through a 675/30 nm filter in FL4 channel.
(A flow cytometer gives signals particle by particle.)

The subject of series [2] is HeLa (cervical cancer) cells. Kind of series: Cytotoxicity assay (7-AAD viability, flow cytometry), HeLa. Type of series: cell-based, human. The conditions noted are these: mean ± SE, at least three experiments in duplicate, viable cells. As to the method: as §1, §2, §3, §4
The test system of series [3] is U937 (histiocytic lymphoma) cells. The series can be described thus: Cytotoxicity assay (7-AAD viability, flow cytometry), U937. Conditions: at least three experiments in duplicate, viable cells, read-out: IC50 U937. The series is classed as cell-based, human. Here is the method:
as §1, §3, §4

Another series deals with Jurkat cells. Kind of series: Annexin V/7-AAD apoptosis assay by flow cytometry. Type of series: cell-based, human. Conditions: 48 h; for early apoptotic cells (Q7-4) / late apoptotic cells (Q7-2) / living (vital) cells (Q7-3) / necrotic cells (Q7-1): at IC50 concentration (59 μM Dihydro BA; 4 μM 15, 15c, 18c; 8 μM 20c); for total number of apoptotic cells (early + late): at IC50 concentration (59 μM Dihydro BA; 4 μM 15c; 8 μM 20c). Here is the method: Apoptosis was determined by flow cytometric analysis of Annexin V and 7-aminoactinomycin D staining. Briefly, 200 μL of Guava Nexin reagent (Millipore, Bedford, MA, USA) was added to 5 × 10^5 cells in 200 μL, and the cells were incubated with the reagent for 20 min at room temperature in the dark. […] At the end of incubation, the cells were analyzed on NovoCyteTM 2000 FlowCytometry System (ACEA). Different states of cell death were defined as follows: normal cells are localized in the lower-left quadrant (Annexin V^−/PI^−); early apoptotic cells are in the lower-right quadrant (Annexin V^+/PI^−); late apoptotic cells and necrotic cells are in the upper-right quadrant (Annexin V^+/PI^+); and necrotic cells are in the upper-left quadrant (Annexin V^−/PI^+).
Figure 2 AnnexinV/7-AAD staining upon induction of apoptosis in Jurkat cells. […] Then, the cells were harvested, stained with Annexin V/7-AAD and analyzed by flow cytometry. The experiments were performed three times, and the results of the representative experiments are shown. The first cytogram represents an untreated cell sample (A); after incubation with dihydrobetulinic acid for 24 h (B) and for 48 h (C); after incubation with compound 15 for 24 h (D) and for 48 h (E); after incubation with compound 15c for 24 h (F) and for 48 h (G); after incubation with compound 18c for 24 h (H) and for 48 h (I); after incubation with compound 20c for 24 h (J) and for 48 h (K). Q7-1, necrotic cells; Q7-2, late apoptotic cells; Q7-3, living cells; Q7-4, early apoptotic cells. TEXT PRINTED IN THE PICTURE: (B) Dihydro BA: Q7-1 0.96% (59 μM); Q7-2 12.11% (59 μM); Q7-3 80.09% (59 μM); Q7-4 6.84% (59 μM) | (C) Dihydro BA: Q7-1 2.34% (59 μM); Q7-2 20.53% (59 μM); Q7-3 73.11% (59 μM); Q7-4 4.02% (59 μM) | (D) Compound 15: Q7-1 3.08% (4 μM); Q7-2 2.24% (4 μM); Q7-3 92.34% (4 μM); Q7-4 2.34% (4 μM) | (E) Compound 15: Q7-1 5.53% (4 μM); Q7-2 91.79% (4 μM); Q7-3 0.58% (4 μM); Q7-4 2.10% (4 μM) | (F) Compound 15c: Q7-1 1.51% (4 μM); Q7-2 2.64% (4 μM); Q7-3 84.92% (4 μM); Q7-4 10.93% (4 μM) | (G) Compound 15c: Q7-1 21.72% (4 μM); Q7-2 16.54% (4 μM); Q7-3 54.49% (4 μM); Q7-4 7.25% (4 μM) | (H) Compound 18c: Q7-1 1.48% (4 μM); Q7-2 3.70% (4 μM); Q7-3 91.14% (4 μM); Q7-4 3.67% (4 μM) | (I) Compound 18c: Q7-1 20.73% (4 μM); Q7-2 14.32% (4 μM); Q7-3 58.16% (4 μM); Q7-4 6.79% (4 μM) | (J) Compound 20c: Q7-1 3.78% (8 μM); Q7-2 1.72% (8 μM); Q7-3 92.26% (8 μM); Q7-4 2.24% (8 μM) | (K) Compound 20c: Q7-1 6.09% (8 μM); Q7-2 7.35% (8 μM); Q7-3 78.36% (8 μM); Q7-4 8.20% (8 μM) DOUBTS OF THE COPYIST ABOUT THIS PICTURE: Panel A (Control, untreated cells: Q7-1 3.75%, Q7-2 0.00%, Q7-3 96.24%, Q7-4 0.01%) left out of lines because it is not a substance / Dihydro BA panel B, Q7-3: 80.09% partly overlaid by plot points, 80.09 or 80.03 / Dihydro BA panel C, Q7-3: 73.11% partly overlaid by plot points / Compound 18c panel I, Q7-3: 58.16% small print, 58.16 or 58.18 / Compound 15 panel E, Q7-3: 0.58% small print, 0.58 or 0.56

In series [4] the test system is K562 (chronic myeloid leukemia) cells. Kind of series: Cytotoxicity assay (7-AAD viability, flow cytometry), K562. Type of series: cell-based, human. Conditions: at least three experiments in duplicate, viable cells, read-out: IC50 K562. Here is the method: as §1, §3, §4
The subject of the next series is normal human fibroblasts. The series can be described thus: Cytotoxicity assay (7-AAD viability, flow cytometry), normal fibroblasts. Type of series: cell-based. Conditions: mean ± SE, at least three experiments in duplicate. Here is the method: as §1, §2, §3
as §4, with “Cells were treated of test compounds with six different concentrations (1, 5, 10, 15, 30 and 60 μM).” left out

Series [5] concerns Jurkat (T-lymphoblastic leukemia) cells. The series can be described thus: cells. Type of series: cell-based. The conditions noted are these: mean ± SE, at least three experiments in duplicate, viable cells, read-out: IC50 Jurkat. Here is the method:
as §1, §3, §4

Structures can show the parent of a compound that is named as a salt. Where two headings read alike, the source gives them in different places.

On to `CC(C)[C@@H]1CC[C@]2(C(=O)O)CC[C@]3(C)[C@H](CC[C@@H]4[C@@]5(C)CC[C@H](O)C(C)(C)[C@@H]5CC[C@]43C)[C@@H]12` [Dihydro BA, 20,29-dihydrobetulinic acid, reference compound], for which the IC50 (as a rule, the concentration that gives 50% inhibition) in series [1] (Homo sapiens, HEK293, mean ± SE) was 128 ± 0.32 µM; in series [2] (Homo sapiens, HeLa), 132 ± 0.47 µM; in series [3] (Homo sapiens, U-937, mean ± SE) it was 39 ± 0.38 µM; in series [4] (Homo sapiens, K562, mean ± SE), 44 ± 0.24 µM; in the series on normal human fibroblasts (Homo sapiens, Fibroblast), 517 ± 0.26 µM; in series [5] (Homo sapiens, Jurkat), 59 ± 0.31 µM. Besides, the “early apoptotic cells (Q7-4)” value with Jurkat cells was 4.0%. Further, the “late apoptotic cells (Q7-2)” value in the series with Jurkat cells amounted to 20.5%. Also, the “living (vital) cells (Q7-3)” value with Jurkat cells worked out at 73.1%. Moreover, the “total number of apoptotic cells (early + late)” value with Jurkat cells is “around 24%”.
`CC(=O)O[C@H]1CC[C@@]2(C)C(CC[C@]3(C)C2CCC2C4C(C(C)C)CC[C@]4(C(=O)NCCN(CCNC(=N)N)CCNC(=N)N)CC[C@]23C)C1(C)C` (single isomer, unassigned) (as salt: trifluoroacetate) [Compound 12a, 3β-N-[2-(N,N′-bis-Ethylgyanidine)-aminoethyl]-3-O-acetyl-lupane-28-amide trifluoroacetate]: the melting point (in general, the temperature, or range, at which the solid turns liquid) was 116 to 118 °C.
Still for that read-out and setting: the value for `CC(=O)O[C@H]1CC[C@@]2(C)C(CC[C@]3(C)C2CCC2C4C(C(C)C)CC[C@]4(C(=O)NCCNC(=N)N)CC[C@]23C)C1(C)C` (stereo partly drawn) (as salt: hydrochloride) [Compound 10b, 3β-N-(2-Ethylgyanidine)-3-O-acetyl-lupane-28-amide hydrochloride] was 192 to 194 °C.
Take `CC(=O)O[C@H]1CC[C@@]2(C)C(CC[C@]3(C)C2CC=C2C4CC(C)(C)CC[C@]4(C(=O)OCC(CO)(CO)NC(=N)N)CC[C@]23C)C1(C)C` (stereo partly drawn) [Compound 20c, 3β-[2-Guanidine-3-hydroxy-2-(hydroxymethyl)propyl]-3-O-acetyl-olean-12-en-28-oate hydrochloride]: the IC50 amounted to 19 ± 0.17 µM in series [1] (mean ± SE); 17 ± 0.32 µM in series [2]; 6.8 ± 0.11 µM in series [3] (mean ± SE); 13 ± 0.45 µM in series [4] (mean ± SE); 54 ± 0.12 µM in the series with normal human fibroblasts; 7.6 ± 0.33 µM in series [5]. Moreover, the “living (vital) cells (Q7-3)” value with Jurkat cells came out at 78.4%. Further, in the series on Jurkat cells, the “necrotic cells (Q7-1)” value is on record as 6.1%. Besides, the “total number of apoptotic cells (early + late)” value in the series on Jurkat cells was “about 15.5%”.
In turn, `CC(=O)O[C@H]1CC[C@@]2(C)C(CC[C@]3(C)C2CCC2C4C(C(C)C)CC[C@]4(C(=O)NCCN(CCNC(=N)N)CCNC(=N)N)CC[C@]23C)C1(C)C` (single isomer, unassigned) (as salt: hydrochloride) [Compound 12b, 3β-N-[2-(N,N′-bis-Ethylgyanidine)-aminoethyl]-3-O-acetyl-lupane-28-amide dihydrochloride] showed a melting point of 198 to 200 °C.
Still for that read-out and setting: as for `CC(=O)O[C@H]1CC[C@@]2(C)C(CC[C@]3(C)C2CCC2C4C(C(C)C)CC[C@]4(C(=O)NCCCN4CCN(CCCNC(=N)N)CC4)CC[C@]23C)C1(C)C` (stereo partly drawn) (as salt: trifluoroacetate) [Compound 13a, 3β-N-{[3-(3-Propylguanidine)piperazinyl]propyl}-3-O-acetyl-lupane-28-amide trifluoroacetate], the figure is 92 to 94 °C.
For `CC(=O)O[C@H]1CC[C@@]2(C)C(CC[C@]3(C)C2CC=C2C4[C@@H](C)[C@H](C)CC[C@]4(C(=O)OCC(CO)(CO)NC(=N)N)CC[C@]23C)C1(C)C` (single isomer, unassigned) [Compound 18c, 3β-[2-Guanidine-3-hydroxy-2-(hydroxymethyl)propyl]-3-O-acetyl-urs-12-en-28-oate hydrochloride], the IC50 stood at 14 ± 0.34 µM in series [1] (mean ± SE); 12 ± 0.29 µM in series [2]; 5.3 ± 0.29 µM in series [3] (mean ± SE); 11 ± 0.18 µM in series [4] (mean ± SE); 51 ± 0.26 µM with normal human fibroblasts; 3.8 ± 0.23 µM in series [5]. Also, the “early apoptotic cells (Q7-4)” value in the series with Jurkat cells came to 6.8%. Further, the “late apoptotic cells (Q7-2)” value in the series with Jurkat cells is 14.3%. Moreover, the “necrotic cells (Q7-1)” value with Jurkat cells worked out at 20.7%.

These data come from paper PMC6278366, “Synthesis and Evaluation of Anticancer Activities of Novel C-28 Guanidine-Functionalized Triterpene Acid Derivatives” (Molecules, 2018).
